Data on 6 compounds can be found in US20260209247A1, “Substituted Tricyclic Compounds” (Lupin Limited, priority 2019, published 2026).

Experiment [1] addresses T1, protein-protein interaction between hSOS1 and hKRASG12C (Homo sapiens, UniProt Q07889).
T1 construct: GST-hSOS1, 564-1049aa expressed and purified in-house
T1 sequence (Q07889 564-1049): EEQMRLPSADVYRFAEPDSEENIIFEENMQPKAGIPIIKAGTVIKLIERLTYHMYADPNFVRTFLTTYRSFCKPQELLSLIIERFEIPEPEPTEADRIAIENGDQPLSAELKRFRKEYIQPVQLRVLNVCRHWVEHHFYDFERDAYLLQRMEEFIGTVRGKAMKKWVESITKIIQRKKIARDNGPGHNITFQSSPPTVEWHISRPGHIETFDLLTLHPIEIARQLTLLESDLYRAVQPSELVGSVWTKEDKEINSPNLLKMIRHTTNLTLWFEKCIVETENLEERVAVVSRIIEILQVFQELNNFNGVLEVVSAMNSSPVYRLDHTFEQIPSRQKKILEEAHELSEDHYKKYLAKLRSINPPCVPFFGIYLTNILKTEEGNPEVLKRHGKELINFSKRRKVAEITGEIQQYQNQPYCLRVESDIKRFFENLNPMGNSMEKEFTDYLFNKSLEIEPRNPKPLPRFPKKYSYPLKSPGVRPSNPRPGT
In words: KRAS-SOS1 interaction assay (HTRF). Type of experiment: binding. Conditions: GST-hSOS1 564-1049aa, HIS-hKRASG12C, read-out: KRAS-SOS1 Interaction inhibition IC50. A digest of the protocol: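 GST-hSOS1 (564-1049aa) at 10-50 nM working solution pre-incubated with compounds 10 min at 20° C in HEPES pH 7.4 buffer with EDTA, DTT, BSA and Igepal. HIS-hKRASG12C (100-300 nM working solution) added for 30-60 min, then anti-GST-d2/anti-HIS-Tb detection; percent inhibition from the 665/620 nm ratio.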

Experiment [2] concerns pERK after EGF stimulation in DLD1 cells. Description: ERK phosphorylation assay (alphascreen pERK). It is filed as cell-based. Conditions: Homo sapiens, DLD-1, 2 h compound, 200 ng/ml hEGF for 5 minutes, read-out: ERK phosphorylation inhibition IC50. A digest of the protocol: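 DLD1 cells pretreated with test compounds for 2 h, then stimulated with 200 ng/ml hEGF for 5 min. Lysates assayed by AlphaScreen SureFire for ERK1/2 p-T202/Y204, read after 2 h at 25–28 °C. % inhibition relative to the stimulated-minus-unstimulated vehicle window.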
Background: Alpha assays give light when donor and acceptor beads are brought close together.

Experiment [3] concerns the target T2, nucleotide exchange on hKRASG12C mediated by hSOS1 (Homo sapiens, UniProt Q07889).
T2 construct: HIS-hSOS1, 564-1049aa mediated GTP loading onto GST-hKRASG12C; His (N); made in house
T2 sequence (Q07889 564-1049): T1 sequence (Q07889 564-1049)
In words: Guanine nucleotide exchange assay (GNEA, HTRF). Type of experiment: biochemical. The note with it: HIS-hSOS1 564-1049aa mediated GTP loading onto GST-hKRASG12C 1-169aa, read-out: Guanine nucleotide exchange inhibition IC50. A digest of the protocol:
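Compounds were pre-incubated 10 min at 20 °C with HIS-hSOS1 (564-1049aa) and EDA-GTP-DY-647P1 (working solution 10-50 nM and 200 nM) in pH 7.4 HEPES with NaCl, MgCl2, DTT, BSA and Igepal. GST-hKRASG12C (1-169aa, 25-125 nM working solution) plus anti-GST-Tb was added for 30-60 min at 20 °C. Percent inhibition came from the HTRF 665/620 nm ratio.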

The test system of experiment [4] is MIA PaCa-2 human pancreatic cancer xenograft. Description: MIA PaCa-2 xenograft efficacy study. It is filed as in vivo. The note with it: b.i.d., p.o., nude mice. On the procedure:
In vivo efficacy of compounds 68, 101b at a dose of 30 mg/kg, b.i.d., p.o. and compound 81 at a dose of 50 mg/kg, b.i.d., p.o., was evaluated in MIA PaCa-2 human pancreatic cancer xenograft model in nude mice.
MIA PaCa-2 tumor fragments were implanted subcutaneously in the right flank region of nude mice. Tumor-bearing mice were randomized once the tumors reached an average volume of ~141-142 mm^3 (tumor volume range 72-242 mm^3).
To assess the efficacy of compound 81, the tumor-bearing mice were randomized once the tumors reached an average volume of ~181-183 mm^3 (tumor volume range 73-251 mm^3). The mice were divided into the following groups (n=8/group): Vehicle control and compound 81 (50 mg/kg, b.i d., p.o.).

Take `Cc1nc(N[C@H](C)c2cccc(C(F)(F)C(C)(C)O)c2F)c2cc3c(cc2n1)N(C)C(=O)C3(C)C` [Compound 81, (R)-4-((1-(3-(1,1-difluoro-2-hydroxy-2-methylpropyl)-2-fluorophenyl)ethyl)amino)-2,6,6,8-tetramethyl-6,8-dihydro-7H-pyrrolo[3,2-g]quinazolin-7-one]: the results for the half-inhibitory concentration (IC50) in experiment [1], in experiment [2] and in experiment [3] were 0.001 to 0.01 µM, 0.001 to 0.2 µM and 0.001 to 0.03 µM, respectively. Besides, in experiment [4] (50 mg/kg), the tumor growth inhibition was 67.68%.
With `Cc1nc(N[C@H](C)c2cccc(C(F)(F)C(C)(C)O)c2F)c2cc3c(cc2n1)C(C)(C)C(=O)N3C` [Compound 68, (R)-4-((1-(3-(1,1-Difluoro-2-hydroxy-2-methylpropyl)-2-fluorophenyl)ethyl)amino)-2,6,8,8-tetramethyl-6,8-dihydro-7H-pyrrolo[2,3-g]quinazolin-7-one], the IC50 was in the range of 0.001 to 0.01 µM in experiment [1], 0.001 to 0.2 µM in experiment [2] and 0.001 to 0.03 µM in experiment [3]. Also, in experiment [4] (30 mg/kg), the tumor growth inhibition is 63.82%.
For the compound `COC1(C)C(=O)N(C)c2cc3c(N[C@H](C)c4cccc(C(F)(F)C(C)(C)O)c4F)nc(C)nc3cc21` (single isomer, unassigned) [Compound 101b], the 50% inhibitory concentration (IC50) is 0.001 to 0.01 µM in experiment [1], 0.001 to 0.2 µM in experiment [2] and 0.001 to 0.03 µM in experiment [3]. The compound also gave a tumor growth inhibition in experiment [4] (30 mg/kg) of 65.71%.
Consider `CO[C@]1(C)C(=O)N(C)c2cc3c(N[C@H](C)c4cccc(C(F)(F)[C@@](C)(O)CN(C)C)c4F)nc(C)nc3cc21` (racemic) [Compound 135b, (S/R)-4-(((R)-1-(3-((R/S)-3-(dimethylamino)-1,1-difluoro-2-hydroxy-2-methylpropyl)-2-fluorophenyl)ethyl)amino)-8-methoxy-2,6,8-trimethyl-6,8-dihydro-7H-pyrrolo[2,3-g]quinazolin-7-one], for which the values for the concentration for half-maximal inhibition (IC50) in experiment [1], in experiment [2] and in experiment [3] were 0.001 to 0.01 µM, 0.001 to 0.2 µM and 0.031 to 0.13 µM, respectively.
With `COC1(C)C(=O)N(C)c2cc3nc(C)nc(N[C@H](C)c4cccc(C(F)(F)C(C)(C)O)c4F)c3cc21` (mixture of isomers) [Compound 96, (R&S)-4-(((R)-1-(3-(1,1-difluoro-2-hydroxy-2-methylpropyl)-2-fluorophenyl)ethyl)amino)-6-methoxy-2,6,8-trimethyl-6,8-dihydro-7H-pyrrolo[3,2-g]quinazolin-7-one], the IC50 lay in the range of 0.001 to 0.01 µM in experiment [1], 0.001 to 0.2 µM in experiment [2] and 0.001 to 0.03 µM in experiment [3].
As for `Cc1nc(N[C@H](C)c2cccc(C(F)(F)C(C)(C)O)c2F)c2cc3c(cc2n1)N(C)C(C)(C)C(=O)N3C` [Compound 28, (R)-4-((1-(3-(1,1-difluoro-2-hydroxy-2-methylpropyl)-2-fluorophenyl)ethyl)amino)-2,6,8,8,9-pentamethyl-8,9-dihydropyrazino[2,3-g]quinazolin-7(6H)-one], the figures for the IC50 in experiment [1], in experiment [2] and in experiment [3] were 0.001 to 0.01 µM, 0.001 to 0.2 µM and 0.001 to 0.03 µM, respectively.

In general, IC50 refers to the point on the concentration scale where inhibition reaches its midpoint.
